Key:
[1] = target: Cyclin-dependent kinase 2 (Homo sapiens, UniProt P24941)
Description: Inhibition of CDK2/Cyclin A by radiometric assay

in vivo = details: BALB/c, mouse, plasma, iv, 0.2 mg/kg
[2] = target: Cyclin-dependent kinase 1/cyclin B1 (Homo sapiens, UniProt P06493)
Description: Inhibition of CDK1/Cyclin B by radiometric assay

HCT-116 [3] = experiment: Antitumor activity against human HCT116 cells xenografted into SCID mouse at 9.1 mg/kg, ip bid for 10 days; type: functional; details: HCT-116, ip, 240 h, route intraperitoneal
HCT-116 [4] = experiment: Antitumor activity against human HCT116 cells xenografted into SCID mouse at 18.2 mg/kg, ip bid for 10 days; type: functional; details: HCT-116, ip, 240 h, route intraperitoneal
HCT-116 [5] = experiment: Antitumor activity against human HCT116 cells xenografted into SCID mouse at […], ip bid for 10 days; type: functional; details: HCT-116, ip, 240 h, dose 4.6 mg/kg, route intraperitoneal
HCT-116 [6] = details: dose 9.1 mg/kg; route intraperitoneal
Description: Antitumor activity against human HCT116 cells xenografted into SCID mouse at 9.1 mg/kg, ip bid administered QDx10 schedule relative to control

Mus musculus = organism: Mus musculus; details: in vivo, ip, 10 mg/kg
in vitro = details: mouse, plasma
Description: Protein binding in mouse plasma at 1 ug/ml after 30 mins

HCT-116 [7] = experiment: Antitumor activity against human HCT116 cells xenografted into BALB/c mouse at 10 mg/kg, ip bid administered QDx9 schedule relative to control; type: functional; details: route intraperitoneal

Chain of Cyclin-dependent kinase 1/cyclin B1 (P06493 whole entry): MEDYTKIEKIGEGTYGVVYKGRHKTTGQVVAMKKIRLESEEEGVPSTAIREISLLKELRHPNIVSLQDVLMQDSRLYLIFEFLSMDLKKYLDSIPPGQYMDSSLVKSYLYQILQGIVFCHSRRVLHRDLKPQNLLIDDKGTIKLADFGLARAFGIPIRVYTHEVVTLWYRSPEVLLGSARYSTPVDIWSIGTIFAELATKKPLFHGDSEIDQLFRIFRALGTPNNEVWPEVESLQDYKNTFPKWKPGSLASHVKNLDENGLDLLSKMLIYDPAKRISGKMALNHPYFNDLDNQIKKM
Chain of Cyclin-dependent kinase 1/cyclin B1 (P14635 whole entry, further chain): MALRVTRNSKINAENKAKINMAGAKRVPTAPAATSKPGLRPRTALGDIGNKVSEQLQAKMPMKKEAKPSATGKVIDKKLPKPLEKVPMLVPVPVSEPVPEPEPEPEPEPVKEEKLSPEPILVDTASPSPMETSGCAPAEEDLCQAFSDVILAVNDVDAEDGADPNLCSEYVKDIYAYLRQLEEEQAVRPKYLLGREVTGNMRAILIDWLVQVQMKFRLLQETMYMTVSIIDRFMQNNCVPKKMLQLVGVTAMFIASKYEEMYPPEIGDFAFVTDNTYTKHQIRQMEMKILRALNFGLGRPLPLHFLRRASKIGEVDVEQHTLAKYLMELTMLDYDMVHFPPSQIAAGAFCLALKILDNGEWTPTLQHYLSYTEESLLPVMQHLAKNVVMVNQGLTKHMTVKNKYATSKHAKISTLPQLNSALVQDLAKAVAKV

Row | SMILES | IC50 [1] [nM] | clearance (in vivo) [mL/min/kg] | IC50 [2] [nM] | other results
1 | O=C(CO)Nc1c[nH]nc1C(=O)Nc1ccc(F)cc1 | 730 | – | – | –
2 | Clc1cncc(Nc2ccccc2)n1 | 7000 | – | – | –
3 | O=C(N[C@H]1CC[C@H](O)CC1)c1n[nH]cc1NC(=O)c1c(F)cccc1F | 19 | 42 | 45 | –
4 | O=C(NC1CCNCC1)c1n[nH]cc1NC(=O)c1c(F)cccc1F [listing 1 of 2 here] | – | – | – | inhibition in vivo at 9.1 mg/kg (HCT-116 [3]): 46%; inhibition in vivo at 18.2 mg/kg (HCT-116 [4]): 86%; inhibition in vivo at […] (HCT-116 [5]): 22%
5 | c1ccc2[nH]c(-c3cc[nH]n3)nc2c1 | 25000 | – | – | –
6 | Nc1c[nH]nc1C(=O)Nc1ccc(F)cc1 | 85000 | – | – | –
7 | N[C@H]1CC[C@H](NC(=O)c2n[nH]cc2NC(=O)c2c(F)cccc2F)CC1 | 38 | 63 | 440 | –
8 | O=C(Nc1ccccc1)c1n[nH]c2ccccc12 | 3000 | – | – | –
9 | O=C(NCC1CC1)c1n[nH]cc1NC(=O)c1c(F)cccc1F | – | 66 | – | –
10 | O=C(Nc1ccc(F)cc1)c1n[nH]cc1NC(=O)c1c(F)cccc1F | – | 40 | 10 | –

Second part, led by results:

Row | IC50 [1] [nM] | clearance (in vivo) [mL/min/kg] | IC50 [2] [nM] | SMILES | other results
11 | 750 | 71 | – | O=C(NC1CCNCC1)c1n[nH]cc1NC(=O)c1c(F)cc(F)cc1F | –
12 | – | 65 | 55 | O=C(NC1CCCCC1)c1n[nH]cc1NC(=O)c1c(F)cccc1F | –
13 | – | 43 | – | O=C(NC1CCNCC1)c1n[nH]cc1NC(=O)c1c(F)cccc1F [listing 2 of 2 here] | T/C (HCT-116 [6]): 54%; AUC (Mus musculus): 3422 ng·h/g; fraction unbound at 0.5 h, 1 ug/ml (in vitro): 0.16
14 | 350 | 38 | – | COc1cccc(F)c1C(=O)Nc1c[nH]nc1C(=O)NC1CCNCC1 | AUC (Mus musculus): 3325 ng·h/g; fraction unbound at 0.5 h, 1 ug/ml (in vitro): 0.25; T/C (HCT-116 [7]): 62%
15 | 110 | 56 | – | O=C(NC1CCNCC1)c1n[nH]cc1NC(=O)c1c(F)cccc1Cl | –
16 | 44 | 48 | 38 | Cl.O=C(N[C@H]1CCCNC1)c1n[nH]cc1NC(=O)c1c(F)cccc1F | –

— ChEMBL document CHEMBL1156543, “Identification of N-(4-piperidinyl)-4-(2,6-dichlorobenzoylamino)-1H-pyrazole-3-carboxamide (AT7519), a novel cyclin dependent kinase inhibitor using fragment-based X-ray crystallography and structure based drug design” (J Med Chem, 2008)
